From patent EP0414533A1, “Use of iodopropargyl esters of alpha-amino acid derivatives as antimicrobial agents” (ROHM AND HAAS COMPANY, priority 1989, dated 1991)
In brackets after ≈: the same amount, converted by molar mass. Where two headings read alike, the source gives them in different places.

Experiments:
Format in all cases: cell-based
[1] = tested on: Aureobasidium pullulans (APUL); test: Minimum inhibitory concentration (MIC), broth two-fold serial dilution test; details: Aureobasidium pullulans, IIIB, trypticase soy broth (complex media); Table IIIb; read-out: MIC (F) APUL
PSH = test: In-vitro plant fungicide test; details: Table IVb, read-out: % Control at (ppm) indicated PSH
COL = test: In-vitro plant fungicide test; details: Table IVb, read-out: % Control at (ppm) indicated COL
8 FUNGI = test: Microbicides secondary test against 8 fungi on Mycophile Agar at pH 5.0 (Table VI); set-up: key: 1= no growth; 0= growth of the indicated fungi at dose indicated in ppm; details: for ANIG growth: Aspergillus niger; for APUL growth: Aureobasidium pullulans; for CGLO growth: Chaetomium globosum; for CRES growth: Cladosporium resinae; for GTRA growth: Gloeophyllum trabeum; for PFUN growth: Penicillium funiculosum; for RRUB growth: Rhodotorula rubra; for SSER growth: Sacharomyces cerevisiae
Description: The results of the minimum inhibitory concentration (MIC) tests of compounds of this invention are shown in Tables IIIa IIIb, IIIc, V, VI, VII, and VIII against the microorganisms shown in Table IX.

Fusarium roseum (FUS) = test: In-vitro plant fungicide test; details: Fusarium sambucinum
[2] = tested on: Cochliobolus sativus (HEL); test: In-vitro plant fungicide test; details: Bipolaris sorokiniana
THREE FUNGI = test: MIC test against three fungi in Mycophile Broth, pH 5.0, read after 8 days (Table VII); details: 192 h, serial dilutions from 50 ppm, read after 8 days of incubation

SMILES: CC(=O)NCC(=O)OCC#CI [Compound 28, N-acetylglycine iodopropargyl ester]
- MIC [1]: 4 µg/mL (≈ 14.2 µM)
- inhibition of growth at 1.5 ppm (PSH; 1.5 ppm): 95%
- inhibition of growth at 6 ppm (PSH; 6 ppm): 100%
- inhibition of growth at 25 ppm (PSH; 25 ppm): 100%
- inhibition of growth at 0.2 ppm (PSH; .2 ppm): 0%
- inhibition of growth at 0.4 ppm (PSH; .4 ppm): 0%
- inhibition of growth at 0.8 ppm (PSH; .8 ppm): 0%
- inhibition of growth at 1.5 ppm (COL; 1.5 ppm): 0%
- inhibition of growth at 3 ppm (COL; 3 ppm): 0%
- inhibition of growth at 6 ppm (COL; 6 ppm): 0%
- inhibition of growth at 12 ppm (COL; 12 ppm): 0%
- inhibition of growth at 25 ppm (COL; 25 ppm): 50%
- inhibition of growth at 0.2 ppm (COL; .2 ppm): 0%
- inhibition of growth at 0.4 ppm (COL; .4 ppm): 0%
- inhibition of growth at 0.8 ppm (COL; .8 ppm): 0%
- ANIG growth (8 FUNGI; 0.2 PPM): 0
- ANIG growth (8 FUNGI; 1.0 PPM): 0
- ANIG growth (8 FUNGI; 2.5 PPM): 0
- ANIG growth (8 FUNGI; 25 PPM): 1
- APUL growth (8 FUNGI; 0.2 PPM): 0
- APUL growth (8 FUNGI; 1.0 PPM): 0
- APUL growth (8 FUNGI; 2.5 PPM): 0
- APUL growth (8 FUNGI; 25 PPM): 1
- CGLO growth (8 FUNGI; 0.2 PPM): 0
- CGLO growth (8 FUNGI; 1.0 PPM): 0
- CGLO growth (8 FUNGI; 2.5 PPM): 0
- CGLO growth (8 FUNGI; 25 PPM): 1
- CRES growth (8 FUNGI; 0.2 PPM): 0
- CRES growth (8 FUNGI; 1.0 PPM): 0
- CRES growth (8 FUNGI; 2.5 PPM): 0
- CRES growth (8 FUNGI; 25 PPM): 1
- GTRA growth (8 FUNGI; 0.2 PPM): 0
- GTRA growth (8 FUNGI; 1.0 PPM): 0
- GTRA growth (8 FUNGI; 2.5 PPM): 0
- GTRA growth (8 FUNGI; 25 PPM): 1
- PFUN growth (8 FUNGI; 0.2 PPM): 0
- PFUN growth (8 FUNGI; 1.0 PPM): 0
- PFUN growth (8 FUNGI; 2.5 PPM): 0
- PFUN growth (8 FUNGI; 25 PPM): 1
- RRUB growth (8 FUNGI; 0.2 PPM): 0
- RRUB growth (8 FUNGI; 1.0 PPM): 0
- RRUB growth (8 FUNGI; 2.5 PPM): 0
- RRUB growth (8 FUNGI; 25 PPM): 1
- SSER growth (8 FUNGI; 0.2 PPM): 0
- SSER growth (8 FUNGI; 1.0 PPM): 0
- SSER growth (8 FUNGI; 2.5 PPM): 0
- SSER growth (8 FUNGI; 25 PPM): 1
- inhibition of growth at 25 ppm (Fusarium roseum (FUS); read-out: % Control at 25 ppm FUS, 25 ppm, Table IVa, *=Phytotoxic): 100%
- inhibition of growth at 1.5 ppm (Fusarium roseum (FUS); read-out: % Control at (ppm) indicated FUS, 1.5 ppm, Table IVb): 0%
- inhibition of growth at 3 ppm (Fusarium roseum (FUS); read-out: % Control at (ppm) indicated FUS, 3 ppm, Table IVb): 0%
- inhibition of growth at 6 ppm (Fusarium roseum (FUS); read-out: % Control at (ppm) indicated FUS, 6 ppm, Table IVb): 0%
- inhibition of growth at 12 ppm (Fusarium roseum (FUS); read-out: % Control at (ppm) indicated FUS, 12 ppm, Table IVb): 100%
- inhibition of growth at 25 ppm (Fusarium roseum (FUS); read-out: % Control at (ppm) indicated FUS, 25 ppm, Table IVb): 100%
- inhibition of growth at 0.2 ppm (Fusarium roseum (FUS); read-out: % Control at (ppm) indicated FUS, .2 ppm, Table IVb): 0%
- inhibition of growth at 0.4 ppm (Fusarium roseum (FUS); read-out: % Control at (ppm) indicated FUS, .4 ppm, Table IVb): 0%
- inhibition of growth at 0.8 ppm (Fusarium roseum (FUS); read-out: % Control at (ppm) indicated FUS, .8 ppm, Table IVb): 0%
- inhibition of growth at 1.5 ppm ([2]; 1.5 ppm, Table IVb, read-out: % Control at (ppm) indicated HEL): 0%
- inhibition of growth at 6 ppm ([2]; 6 ppm, Table IVb, read-out: % Control at (ppm) indicated HEL): 100%
- inhibition of growth at 25 ppm ([2]; Table IVa, *=Phytotoxic, read-out: % Control at 25 ppm HEL): 100%
- inhibition of growth at 25 ppm ([2]; Table IVb, read-out: % Control at (ppm) indicated HEL): 100%
- inhibition of growth at 0.2 ppm ([2]; .2 ppm, Table IVb, read-out: % Control at (ppm) indicated HEL): 0%
- inhibition of growth at 0.4 ppm ([2]; .4 ppm, Table IVb, read-out: % Control at (ppm) indicated HEL): 0%
- inhibition of growth at 0.8 ppm ([2]; .8 ppm, Table IVb, read-out: % Control at (ppm) indicated HEL): 0%
- MIC (THREE FUNGI; Aspergillus niger, read-out: MIC ANIG): 12.5 µg/mL (≈ 44.5 µM)
- MIC (THREE FUNGI; Aureobasidium pullulans, read-out: MIC APUL): 50 µg/mL (≈ 178 µM)
- MIC (THREE FUNGI; Gloeophyllum trabeum, read-out: MIC GTRA): 6.2 µg/mL (≈ 22.1 µM)
